Source: publication PMC8577775, “Small molecule allosteric inhibitors of RORγt block Th17-dependent inflammation and associated gene expression in vivo” (PLoS ONE, 2021)

How the values were obtained:
[1] = system: Bclxl expression in the thymus; experiment: Bclxl expression in thymus after oral dosing (QPCR); format: in vivo, mouse; conditions: 100 mg/kg PO, C57Bl/6 female mice; S5 Fig
Procedure: Supplementary file pone.0248034.s009.tif: S5 Fig RORγt inhibitors reduce Bclxl expression in thymus of rodents. C57Bl/6 female mice were dosed PO with 100 mg/kg Compound 1, 2 or 3. Thymic tissues were collected from separate cohorts at 2, 8, 16 and 24 hours post-dose (n = 3 mice/timepoint). RNA was extracted from thymic tissues and Bclxl expression measured by QPCR. […] Time zero (‘0’) used as normalization timepoint and set to 1.0 RQ and mean set at 100% for % inhibition calculation. One-way ANOVA with Bonferroni correction for multiple comparisons used for statistical significance calculations. (TIF) Click here for additional data file.

[2] = system: RORγt-dependent inflammation; experiment: RORγt/Th17-dependent inflammation in vivo, overall statement (acute and chronic settings); conditions: with IC50 coverage alone (same level of response)
[3] = system: IMQ-induced skin inflammation in Balb/c mice; experiment: Imiquimod (IMQ)-induced skin inflammation model; format: in vivo, mouse; conditions: day 4; for ear thickness: control-treated 0.17 ± 0.002 mm
Procedure: For IMQ-induced skin inflammation, wild-type (WT) Balb/c female mice, 5–8 weeks of age, were purchased from Charles River Laboratories. All mice were housed in pathogen-free conditions at Bristol Myers Squibb (Cambridge, MA). Aldara cream containing 5% imiquimod (Patterson Veterinary Supply, Inc; Devens, MA) was applied to the ears daily (11–14 mg) for 3 days. Mice were treated twice daily (BID) on days 1–4 per os (PO) with vehicle (0.5% methylcellulose/0.25% Tween80) or RORγt inhibitors at indicated doses immediately prior to Aldara application. Ear thickness was measured using micro-calipers. Tissues were harvested on day 4, 2 hours following the last compound dose. Naïve mice are completely untreated, receiving neither control vehicle for IMQ nor Compound.
For RNA isolation & gene expression, ears are collected on day 4 in RNAlater (Qiagen) and stored at 4°C until processed. Ears were homogenized using Procellys 24 homogenizer & hard tissue homogenizing beads (Bertin Instruments), 2 cycles of 30 seconds @ 6000 rpm in RLT lysis buffer according to manufacturer’s instructions. RNA was isolated using RNAeasy Plus MiniPrep columns (Qiagen) and cDNA generated using SuperScript VILO cDNA Synthesis kit (Invitrogen). Gene expression was quantified using TaqMan Fast Master Mix & and TaqMan FAM-MGB probe sets (Applied Biosystems): Gapdh, Mm99999915_g1, Il17a, Mm00439618_m1, Il17f, Mm00521423_m1, Il22, Mm01226722_g1 & Bclxl, Mm00437783_m1. QPCR reactions were run on QuantStudio 7 instrument. Relative quantification and fold changes were calculated using ddCT values against Gapdh and normalized to control-treated animals. For PDAC xenografts, RNA was isolated from tumor sections using Qiagen RNeasy kit (cat#74106), then cDNA was prepared using 2 μg of RNA and the high capacity RNA to cDNA kit (Applied Biosystems, cat#4387406) as per manufacturer’s instructions. Biomarker expression was determined using Taqman gene expression probes (S1 Table) and Universal master mix (ThermoFisher Scientific cat#4305719) with expression levels normalized to Gapdh.
For cytokine production, ears are removed, split in half using forceps and floated, dermis side-down, in DMEM media (Gibco) and incubated at 37° C for 24 hours. Following incubation, media was removed and cytokine production assessed by Luminex assay (Bio-Rad Laboratories).

[4] = system: MOG35-55-induced EAE in C57BL/6 mice; experiment: Experimental autoimmune encephalomyelitis (EAE) model; format: in vivo, mouse; conditions: for EAE clinical score (0-5): vehicle peak 3.08 ± 0.28
Procedure: EAE studies were conducted at Hooke Laboratories. WT female C57BL/6 mice (Taconic Labs) 9 weeks of age were inoculated on day 0 with MOG35-55 peptide (Hooke Kit™ MOG35-55/CFA Emulsion PTX) (EK-2110, Hooke Laboratories, Lawrence MA) followed by intraperitoneal (IP) injections of pertussis toxin at 2 and 24 hours. Mice were treated twice daily (BID, starting at day 1) per os (PO) with vehicle (0.5% MC/0.25% Tween80) or RORγt inhibitors at indicated doses. FTY720 (Gilenya) was dosed once daily (QD) at 3 mg/kg starting at day 1. EAE clinical scores were evaluated daily and scored from 0–5 according to Hooke Lab EAE scoring guidelines http://hookelabs.com/services/cro/eae/MouseEAEscoring.html. Mean clinical scores & body weight loss were assessed and statistical significance calculated by Wilcoxon’s non-parametric or 2-tailed Student’s t-test, respectively. All studies performed were approved in accordance with the Institutional Animal Care and Use Committee of Bristol Myers Squibb and complied according to Bristol Myers Squibb guidelines.

SMILES: O=C(O)[C@@H]1CCC(c2nn(C(=O)c3c(Cl)cccc3C(F)(F)F)c3cccc(F)c23)=C[C@H]1O [Compound 3]
- Bclxl expression in the thymus [1]: modulation of Bclxl expression in the thymus
- inhibition of Th17-dependent responses [2]: ~ 45%
- ear thickness ([3]; 25 mg/kg PO): 0.163 ± 0.002 mm
- ear thickness ([3]; 50 mg/kg PO): 0.156 ± 0.001 mm
- ear thickness ([3]; 100 mg/kg PO): 0.143 ± 0.002 mm
- Th17-cytokine gene expression in ear skin ([3]; 50 and 100 mg/kg dosed groups): reduced
- Bclxl expression in skin tissues ([3]; oral administration, IMQ model): significantly reduced
- EAE clinical score (0-5) ([4]; 3 mg/kg BID PO): 2.79 ± 0.25
- EAE clinical score (0-5) ([4]; 10 mg/kg BID PO): 2.32 ± 0.21
- significant disease onset ([4]; 30 mg/kg BID PO, vehicle day 12): 15 days
- EAE clinical score (0-5) ([4]; 30 mg/kg BID PO): 1.5 ± 0.27
- body weight loss in EAE ([4]; maintained for the duration of study): significant reductions in body weight loss
